# Key:
# [1] = system: PC-3; test: Cytotoxicity against human PC-3 cells; type: functional; conditions: for EC50: Homo sapiens, PC-3, read-out: ED50 (the source's name)
# [2] = system: MIA PaCa-2; test: Cytotoxicity against human MIA PaCa2 cells; type: functional; conditions: for EC50: Homo sapiens, MIA PaCa-2, read-out: ED50 (the source's name)
# [3] = Toxicity in brine shrimp; type: organism-based; conditions: artemia, in vivo
# [4] = system: A549; test: Cytotoxicity against human A549 cells; type: functional; conditions: for EC50: Homo sapiens, A549, read-out: ED50 (the source's name)
# [5] = system: MCF7; test: Cytotoxicity against human MCF7 cells; type: functional; conditions: for EC50: Homo sapiens, MCF7, read-out: ED50 (the source's name)
# [6] = system: HT-29; test: Cytotoxicity against human HT-29 cells; type: functional; conditions: Homo sapiens, HT-29; read-out: ED50 (the source's name)
# [7] = system: A498; test: Cytotoxicity against human A-498 cells; type: functional; conditions: Homo sapiens, A498; read-out: ED50 (the source's name)
SMILES,EC50 [1] [µg/mL],EC50 [2] [µg/mL],LC50 [3] [µg/mL],EC50 [4] [µg/mL],EC50 [5] [µg/mL],EC50 [6] [µg/mL],EC50 [7] [µg/mL],ED50 [4] [×10⁻⁸ ug/ml],ED50 [5],ED50 [2] [×10⁻⁴ ug/ml],ED50 [1] [×10⁻⁸ ug/ml]
CCCCCCCCCCCC[C@@H](O)[C@H]1CC[C@H]([C@H](O)CCC(O)CCCC(O)CCC[C@@H](O)CC2=C[C@H](C)OC2=O)O1 (stereo not given in full) [MURICAPENTOCIN],0.45,0.05,1.8,0.19,1.9,0.071,1.7,,,,
CCCCCCCCCC[C@@H](O)[C@H]1CC[C@H]([C@H](O)CCCC[C@H](O)CCCCCCC[C@@H](O)CC2=C[C@H](C)OC2=O)O1 [GLACIN A],0.0098,0.0086,0.11,1.5,0.0044,2.3,1.3,,,,
CCCCCCCCCCCC[C@@H](O)[C@H]1CC[C@@H]([C@@H]2CC[C@@H](CCCCCCC[C@@H](O)CC3=C[C@H](C)OC3=O)O2)O1 [ROLLIDECIN C],0.29,0.11,,1.3,1.1,0.063,1.4,,,,
CCCCCCCCCCCC[C@@H](O)[C@H]1CCC(C2CCC(CC(O)CCCCC[C@@H](O)CC3=C[C@H](C)OC3=O)O2)O1 (stereo not given in full) [ROLLINACIN],2.5,2,3.5,0.046,0.16,2.1,1.6,,,,
CCCCCCCCCCCCCCCCC[C@@H](O)[C@H]1C[C@H](O)[C@H]([C@H]2CC[C@H]([C@H](O)CCCCCC3=C[C@H](C)OC3=O)O2)O1 [MUCOXIN],0.31,0.33,,0.036,0.0037,0.61,0.84,,,,
CCCCCCCCCC[C@@H](O)[C@H]1CC[C@@H]([C@H]2CC[C@H]([C@H](O)CCCC[C@H](O)CCCCC[C@@H](O)CC3=C[C@H](C)OC3=O)O2)O1,0.38,0.2,,,,0.14,0.01,1,1.9 ×10⁻⁸ ug/ml,,
CCCCCCCCCCCC[C@@H](O)[C@H]1CC[C@@H]([C@@H]2CC[C@@H](CCCCCCCCC[C@@H](O)CC3=C[C@H](C)OC3=O)O2)O1 [ROLLIDECIN D],1.9,1,,5.9,5,5.4,4,,,,
CCCCCCCCCCCCCC/C=C\[C@@H](O)C[C@H](O)[C@@H]1CC[C@@H](CCCCC[C@@H](O)CC2=C[C@H](C)OC2=O)O1 [GONIOTRIONIN],0.36,0.0054,,0.0077,,0.34,0.002,,5.3 ×10⁻⁶ ug/ml,,
CCCCCCCCCCCC[C@@H](O)[C@H]1CC[C@H]([C@H]2CCC[C@@H]([C@@H](O)CCCCCCC[C@@H](O)CC3=C[C@H](C)OC3=O)O2)O1 [MUCONIN],0.58,,,0.0045,,0.39,0.18,,2.4 ×10⁻⁴ ug/ml,5.4,
CCCCCCCCCCCC[C@H](O)[C@@H]1CC[C@H]([C@H](O)CCCCCC(=O)CCCC[C@@H](O)CC2=C[C@H](C)OC2=O)O1 [MOSIN C],> 1,,,0.6,> 1,> 1,> 1,,,1.2,
CCCCCCCCCCCC[C@H](O)[C@H]1CC[C@H]([C@H](O)CCCCCC(=O)CCCC[C@@H](O)CC2=C[C@H](C)OC2=O)O1 [MOSIN B],> 1,,,0.94,> 1,> 1,> 1,,,1.2,
CCCCCCCCCCCC[C@H](O)[C@H]1CC[C@H]([C@H]2CC[C@H]([C@H](O)CCCCCCCC[C@@H](O)CC3=C[C@H](C)OC3=O)O2)O1 [SQUAMOTACIN],,,,,,,,,,,1

# Reference: ChEMBL document CHEMBL1141818, “Annonaceous acetogenins: recent progress” (J Nat Prod, 1999)
